# Measured values taken from patent US20260096978A1, “A METHOD FOR PREVENTING, […]/OR TREATING PTGS2-INDUCED SKIN DISORDERS AND RELATED DYSFUNCTIONS” (Symrise AG, priority 2022, published 2026).
# What was measured:
# PTGS2 [1] = test: PTGS2 gene expression (real-time RT-PCR) in ex vivo human skin biopsies exposed to solar simulated radiation; type: cell-based; details: for PTGS2 gene expression, fold-change versus non-irradiated vehicle: SSR 250 J/cm^2 daily, day 2; for PTGS2 gene expression, % of irradiated vehicle: irradiated vehicle = 100; for PTGS2 gene expression, Δ versus irradiated vehicle: irradiated vehicle Δ = 0; for Effect on SSR-induced PTGS2 gene expression, in words: ex vivo human skin, SSR 250 J/cm^2
# Procedure: (§1) In order to evaluate the efficacy of L-Carnosine on protecting skin from Solar Simulated Radiation (SSR), gene expression and protein level of PTGS2 were analysed. -Ex vivo human skin biopsies were topically treated with L-Carnosine at different concentrations (0.2% and 2.2%), and daily exposed to 250 J/cm^2 of SSR. Gene expression and protein modulation were assessed respectively at day 2 and day3. The radiation dose was selected following the literature, and represent the approximative amount of solar light acquirable under natural conditions by sunbathing.
# (§2) Human skin samples were obtained from plastic surgery of healthy patients (aged between 25 and 60), and not intensive sun exposed. The informed consent was obtained from patients and retained by clinic. For the studies, twelve 8 mm diameter punch biopsies were used for each treatment. The skin samples were cultured in modified Williams' E medium at air-liquid interface and, maintained in incubator at the following conditions: 37° C., 5% CO2 and 95% humidity.
# (§3) For these studies L-Carnosine was dissolved in vehicle (DMSO/PBS 1:25) at the following concentration 0.2% and 2.2%. Treatments were applied topically and renewed daily as follows: skin biopsies were cleaned with sterile cotton buds and 4 μl of treatment were applied on the biopsy's epidermis. All treated and the control samples were covered with 6 mm diameter delivery membranes.
# (§4) Skin irradiation was performed daily, with Suntest XLS+(Ametek Inc., USA) equipped with the provided IR filter and a DAY LIGHT filter, to obtain an emission spectrum between 300 and 800 nm. Every day the skin samples were irradiated with a SSR dose of 250 J/cm^2. Control samples were sham-irradiated under the same conditions.
# Human skin biopsies were collected in cryo-vial containing a commercial RNA stabilization solution (RNAlater, Merck KGaA, Germany) and stored at −80° C. Total RNA was extracted using a commercial kit (Rneasy mini-kit, Qiagen GmbH, Germany) according to the manufacturer's instructions. The expression level of selected genes was determined using Real-time RT-PCR method with custom designed gene array (TaqMan® Array 96-Well Fast Plates, Thermo Fisher Scientific Inc., USA).
# Gene expression changes were determined in three donors.
# PTGS2 [2] = test: PTGS2 protein level (IHC staining) in ex vivo human skin biopsies exposed to solar simulated radiation; type: cell-based; details: SSR 250 J/cm^2; for PTGS2 protein level, mean as % of non-irradiated vehicle / PTGS2 protein level, Δ versus non-irradiated vehicle / PTGS2 protein level, mean score: day 3; for PTGS2 protein level, mean as % of non-irradiated vehicle: irradiated vehicle 198%; for PTGS2 protein level, Δ versus non-irradiated vehicle: irradiated vehicle Δ 98%; for PTGS2 protein level, mean score: non-irradiated vehicle 1.0302, irradiated vehicle 2.0439
# Procedure: as §1, §2, §3, §4
# Skin samples were collected (day 3), fixed in formalin and paraffin embedded. Skin sections were immuno-stained with PTGS2 antibody (Thermo Fisher Scientific Inc., USA). The images of the skin sections were acquired, and the analysis was performed through Image-J application (NIH, USA).
smiles,measurement,setting,value
NCCC(=O)N[C@@H](Cc1cnc[nH]1)C(=O)O [L-Carnosine],"PTGS2 gene expression, fold-change versus non-irradiated vehicle","PTGS2 [1]; Donor #1, L-Carnosine 0.2% topical, irradiated vehicle 5.3",4.2 fold-change
same,"PTGS2 gene expression, % of irradiated vehicle","PTGS2 [1]; Donor #1, L-Carnosine 0.2%",79%
same,"PTGS2 gene expression, Δ versus irradiated vehicle","PTGS2 [1]; Donor #1, L-Carnosine 0.2%",−21
same,"PTGS2 gene expression, fold-change versus non-irradiated vehicle","PTGS2 [1]; Donor #1, L-Carnosine 2.2% topical, irradiated vehicle 5.3",4.0 fold-change
same,"PTGS2 gene expression, % of irradiated vehicle","PTGS2 [1]; Donor #1, L-Carnosine 2.2%",76%
same,"PTGS2 gene expression, Δ versus irradiated vehicle","PTGS2 [1]; Donor #1, L-Carnosine 2.2%",−24
same,"PTGS2 gene expression, fold-change versus non-irradiated vehicle","PTGS2 [1]; Donor #2, L-Carnosine 0.2% topical, irradiated vehicle 13.9",11.3 fold-change
same,"PTGS2 gene expression, % of irradiated vehicle","PTGS2 [1]; Donor #2, L-Carnosine 0.2%",81%
same,"PTGS2 gene expression, Δ versus irradiated vehicle","PTGS2 [1]; Donor #2, L-Carnosine 0.2%",−19
same,"PTGS2 gene expression, fold-change versus non-irradiated vehicle","PTGS2 [1]; Donor #2, L-Carnosine 2.2% topical, irradiated vehicle 13.9",7.7 fold-change
same,"PTGS2 gene expression, % of irradiated vehicle","PTGS2 [1]; Donor #2, L-Carnosine 2.2%",55%
same,"PTGS2 gene expression, Δ versus irradiated vehicle","PTGS2 [1]; Donor #2, L-Carnosine 2.2%",−45
same,"PTGS2 gene expression, fold-change versus non-irradiated vehicle","PTGS2 [1]; Donor #3, L-Carnosine 0.2% topical, irradiated vehicle 2.0",1.4 fold-change
same,"PTGS2 gene expression, % of irradiated vehicle","PTGS2 [1]; Donor #3, L-Carnosine 0.2%",70%
same,"PTGS2 gene expression, Δ versus irradiated vehicle","PTGS2 [1]; Donor #3, L-Carnosine 0.2%",−30
same,"PTGS2 gene expression, fold-change versus non-irradiated vehicle","PTGS2 [1]; Donor #3, L-Carnosine 2.2% topical, irradiated vehicle 2.0",1.4 fold-change
same,"PTGS2 gene expression, % of irradiated vehicle","PTGS2 [1]; Donor #3, L-Carnosine 2.2%",72%
same,"PTGS2 gene expression, Δ versus irradiated vehicle","PTGS2 [1]; Donor #3, L-Carnosine 2.2%",−28
same,"Effect on SSR-induced PTGS2 gene expression, in words",PTGS2 [1],efficiently reduce the SSR-induced induction of the PTGS2 gene
same,"Effect on SSR-induced PTGS2 gene expression, in words",PTGS2 [1]; listed as L-carnosine,reduces the expression of PTGS2
same,"PTGS2 protein level, mean as % of non-irradiated vehicle",PTGS2 [2]; L-Carnosine 0.2%,193%
same,"PTGS2 protein level, Δ versus non-irradiated vehicle",PTGS2 [2]; L-Carnosine 0.2%,93%
same,"PTGS2 protein level, mean score",PTGS2 [2]; L-Carnosine 0.2%,1.9913
same,"PTGS2 protein level, mean as % of non-irradiated vehicle",PTGS2 [2]; L-Carnosine 2.2%,146%
same,"PTGS2 protein level, Δ versus non-irradiated vehicle",PTGS2 [2]; L-Carnosine 2.2%,46%
same,"PTGS2 protein level, mean score",PTGS2 [2]; L-Carnosine 2.2%,1.5091
same,"Effect on SSR-induced PTGS2 protein, in words",PTGS2 [2]; ex vivo human skin,efficiently reduce the SSR-induced induction of the PTGS2 gene and the PTGS2-protein
